{"source": "paper PMC7544826", "about": "(Communications Biology, 2020)", "key": {"[1]": {"molecular_target": "T1, Notum (Homo sapiens, UniProt Q6P988, C330S)", "T1 sequence (Q6P988 81-451 C330S)": "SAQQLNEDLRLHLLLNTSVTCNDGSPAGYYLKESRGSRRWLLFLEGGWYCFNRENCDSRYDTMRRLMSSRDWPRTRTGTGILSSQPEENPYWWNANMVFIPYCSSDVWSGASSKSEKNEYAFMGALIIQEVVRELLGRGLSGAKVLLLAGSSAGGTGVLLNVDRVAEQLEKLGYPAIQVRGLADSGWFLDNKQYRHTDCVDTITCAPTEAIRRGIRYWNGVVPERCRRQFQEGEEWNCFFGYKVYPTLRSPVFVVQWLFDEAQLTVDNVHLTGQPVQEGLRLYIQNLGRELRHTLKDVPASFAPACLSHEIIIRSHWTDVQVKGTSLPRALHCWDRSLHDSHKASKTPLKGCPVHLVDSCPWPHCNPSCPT", "assay": "SPR equilibrium binding to biotinylated Notum on streptavidin chip", "parameters": "The human Notum enzyme core comprising amino acids S81–T451 with a C330S mutation; made in house; dialyzed conditioned medium used without purification", "settings": "result in words", "protocol": "The human Notum core sequence was cloned in a pHL-Avi3 vector[49] and co-transfected with the pDisplay_BirA-ER plasmid[50] into HEK293T cells with the media supplemented with 20 µM biotin. This procedure allows in vivo biotinylation to occur, and the dialyzed conditioned medium was directly used for SA sensor chip immobilization without protein purification. […] Approximately 2500 resonance units (RU) of the biotinylated Notum was coupled onto the chip. […] The response was plotted versus the concentration of the analytes and fitted by nonlinear regression to a one-site saturation binding model (GraphPad Prism 8)."}, "[2]": {"molecular_target": "T1, Notum", "assay": "Thermal shift assay (SYPRO Orange) of Notum", "settings": "compound 500 µM; for Thermoflour melting curve fluorescence of Notum: Fig 2c", "procedure": "Reference wells, i.e. solutions without compounds were used to compare the melting temperature (Tm). The experiments were performed in triplicate."}, "[3]": {"molecular_target": "T1, Notum", "assay": "Notum activity assay with OPTS as substrate", "assay_type": "biochemical", "parameters": "The human Notum enzyme core comprising amino acids S81–T451 with a C330S mutation; made in house; dialyzed conditioned medium used without purification", "settings": "result in words", "protocol": "OPTS is a common lipase substrate with an octanoyl lipid linked to a fluorescent moiety. It is not a natural Notum substrate; however, it can be used to quantify the enzymatic activity of purified Notum protein[23],[25],[28]. […] The fluorescent lipase substrate OPTS was dissolved in water at a concentration of 20 µM. […] The inhibition curves were fitted with a one-site model with GraphPad Prism 8 software."}}, "note": "“Also recorded” adds a separate entry of the source.", "data": [{"substance": "1,5-dimethylxanthine [theobromine]", "values": [{"measurement": "Binding to Notum (SPR response)", "setting": "[1]", "result": "did not observe significant responses; also recorded: do not bind Notum"}, {"measurement": "Thermoflour melting curve fluorescence of Notum", "setting": "[2]; Temperature 24.5", "result": 1404.51}, {"measurement": "Thermoflour melting curve fluorescence of Notum", "setting": "[2]; Temperature 25.5", "result": 1219.92}, {"measurement": "Thermoflour melting curve fluorescence of Notum", "setting": "[2]; Temperature 26.5", "result": 1040.89}, {"measurement": "Thermoflour melting curve fluorescence of Notum", "setting": "[2]; Temperature 27.5", "result": 912.702}, {"measurement": "Thermoflour melting curve fluorescence of Notum", "setting": "[2]; Temperature 28.5", "result": 812.506}, {"measurement": "Thermoflour melting curve fluorescence of Notum", "setting": "[2]; Temperature 29.5", "result": 748.934}, {"measurement": "Thermoflour melting curve fluorescence of Notum", "setting": "[2]; Temperature 30.5", "result": 702.942}, {"measurement": "Thermoflour melting curve fluorescence of Notum", "setting": "[2]; Temperature 31.5", "result": 648.106}, {"measurement": "Thermoflour melting curve fluorescence of Notum", "setting": "[2]; Temperature 32.5", "result": 580.173}, {"measurement": "Thermoflour melting curve fluorescence of Notum", "setting": "[2]; Temperature 33.5", "result": 507.838}, {"measurement": "Thermoflour melting curve fluorescence of Notum", "setting": "[2]; Temperature 34.5", "result": 418.887}, {"measurement": "Thermoflour melting curve fluorescence of Notum", "setting": "[2]; Temperature 35.5", "result": 274.731}, {"measurement": "Thermoflour melting curve fluorescence of Notum", "setting": "[2]; Temperature 36.5", "result": 90.4697}, {"measurement": "Thermoflour melting curve fluorescence of Notum", "setting": "[2]; Temperature 37.5", "result": -139.16}, {"measurement": "Thermoflour melting curve fluorescence of Notum", "setting": "[2]; Temperature 38.5", "result": -392.32}, {"measurement": "Thermoflour melting curve fluorescence of Notum", "setting": "[2]; Temperature 39.5", "result": -608.25}, {"measurement": "Thermoflour melting curve fluorescence of Notum", "setting": "[2]; Temperature 40.5", "result": -782.991}, {"measurement": "Thermoflour melting curve fluorescence of Notum", "setting": "[2]; Temperature 41.5", "result": -908.263}, {"measurement": "Thermoflour melting curve fluorescence of Notum", "setting": "[2]; Temperature 42.5", "result": -987.266}, {"measurement": "Thermoflour melting curve fluorescence of Notum", "setting": "[2]; Temperature 43.5", "result": -1014}, {"measurement": "Thermoflour melting curve fluorescence of Notum", "setting": "[2]; Temperature 44.5", "result": -973.707}, {"measurement": "Thermoflour melting curve fluorescence of Notum", "setting": "[2]; Temperature 45.5", "result": -878.635}, {"measurement": "Thermoflour melting curve fluorescence of Notum", "setting": "[2]; Temperature 46.5", "result": -736.376}, {"measurement": "Thermoflour melting curve fluorescence of Notum", "setting": "[2]; Temperature 47.5", "result": -559.758}, {"measurement": "Thermoflour melting curve fluorescence of Notum", "setting": "[2]; Temperature 48.5", "result": -346.91}, {"measurement": "Thermoflour melting curve fluorescence of Notum", "setting": "[2]; Temperature 49.5", "result": -78.207}, {"measurement": "Thermoflour melting curve fluorescence of Notum", "setting": "[2]; Temperature 50.5", "result": 248.299}, {"measurement": "Thermoflour melting curve fluorescence of Notum", "setting": "[2]; Temperature 51.5", "result": 600.666}, {"measurement": "Thermoflour melting curve fluorescence of Notum", "setting": "[2]; Temperature 52.5", "result": 986.098}, {"measurement": "Thermoflour melting curve fluorescence of Notum", "setting": "[2]; Temperature 53.5", "result": 1440.99}, {"measurement": "Thermoflour melting curve fluorescence of Notum", "setting": "[2]; Temperature 54.5", "result": 1961.08}, {"measurement": "Thermoflour melting curve fluorescence of Notum", "setting": "[2]; Temperature 55.5", "result": 2560.53}, {"measurement": "Thermoflour melting curve fluorescence of Notum", "setting": "[2]; Temperature 56.5", "result": 3253.14}, {"measurement": "Thermoflour melting curve fluorescence of Notum", "setting": "[2]; Temperature 57.5", "result": 4045.69}, {"measurement": "Thermoflour melting curve fluorescence of Notum", "setting": "[2]; Temperature 58.5", "result": 5053.15}, {"measurement": "Thermoflour melting curve fluorescence of Notum", "setting": "[2]; Temperature 59.5", "result": 6367.38}, {"measurement": "Thermoflour melting curve fluorescence of Notum", "setting": "[2]; Temperature 60.5", "result": 8116.48}, {"measurement": "Thermoflour melting curve fluorescence of Notum", "setting": "[2]; Temperature 61.5", "result": 10309.5}, {"measurement": "Thermoflour melting curve fluorescence of Notum", "setting": "[2]; Temperature 62.5", "result": 12803.5}, {"measurement": "Thermoflour melting curve fluorescence of Notum", "setting": "[2]; Temperature 63.5", "result": 15345.7}, {"measurement": "Thermoflour melting curve fluorescence of Notum", "setting": "[2]; Temperature 64.5", "result": 17689.5}, {"measurement": "Thermoflour melting curve fluorescence of Notum", "setting": "[2]; Temperature 65.5", "result": 19737.1}, {"measurement": "Thermoflour melting curve fluorescence of Notum", "setting": "[2]; Temperature 66.5", "result": 21432.6}, {"measurement": "Thermoflour melting curve fluorescence of Notum", "setting": "[2]; Temperature 67.5", "result": 22887.7}, {"measurement": "Thermoflour melting curve fluorescence of Notum", "setting": "[2]; Temperature 68.5", "result": 24216}, {"measurement": "Thermoflour melting curve fluorescence of Notum", "setting": "[2]; Temperature 69.5", "result": 25446.3}, {"measurement": "Thermoflour melting curve fluorescence of Notum", "setting": "[2]; Temperature 70.5", "result": 26564.8}, {"measurement": "Thermoflour melting curve fluorescence of Notum", "setting": "[2]; Temperature 71.5", "result": 27592.2}, {"measurement": "Thermoflour melting curve fluorescence of Notum", "setting": "[2]; Temperature 72.5", "result": 28538.2}, {"measurement": "Thermoflour melting curve fluorescence of Notum", "setting": "[2]; Temperature 73.5", "result": 29406}, {"measurement": "Thermoflour melting curve fluorescence of Notum", "setting": "[2]; Temperature 74.5", "result": 30226.8}, {"measurement": "Thermoflour melting curve fluorescence of Notum", "setting": "[2]; Temperature 75.5", "result": 30994.2}, {"measurement": "Thermoflour melting curve fluorescence of Notum", "setting": "[2]; Temperature 76.5", "result": 31712.3}, {"measurement": "Thermoflour melting curve fluorescence of Notum", "setting": "[2]; Temperature 77.5", "result": 32380.8}, {"measurement": "Thermoflour melting curve fluorescence of Notum", "setting": "[2]; Temperature 78.5", "result": 33030.5}, {"measurement": "Thermoflour melting curve fluorescence of Notum", "setting": "[2]; Temperature 79.5", "result": 33697.5}, {"measurement": "Thermoflour melting curve fluorescence of Notum", "setting": "[2]; Temperature 80.5", "result": 34352.1}, {"measurement": "Thermoflour melting curve fluorescence of Notum", "setting": "[2]; Temperature 81.5", "result": 34969.9}, {"measurement": "Thermoflour melting curve fluorescence of Notum", "setting": "[2]; Temperature 82.5", "result": 35562.2}, {"measurement": "Thermoflour melting curve fluorescence of Notum", "setting": "[2]; Temperature 83.5", "result": 36162.5}, {"measurement": "Thermoflour melting curve fluorescence of Notum", "setting": "[2]; Temperature 84.5", "result": 36803.8}, {"measurement": "Thermoflour melting curve fluorescence of Notum", "setting": "[2]; Temperature 85.5", "result": 37475.6}, {"measurement": "Thermoflour melting curve fluorescence of Notum", "setting": "[2]; Temperature 86.5", "result": 38149.2}, {"measurement": "Thermoflour melting curve fluorescence of Notum", "setting": "[2]; Temperature 87.5", "result": 38788.7}, {"measurement": "Thermoflour melting curve fluorescence of Notum", "setting": "[2]; Temperature 88.5", "result": 39302.1}, {"measurement": "Thermoflour melting curve fluorescence of Notum", "setting": "[2]; Temperature 89.5", "result": 39800.1}, {"measurement": "Thermoflour melting curve fluorescence of Notum", "setting": "[2]; Temperature 90.5", "result": 40397.5}, {"measurement": "Thermoflour melting curve fluorescence of Notum", "setting": "[2]; Temperature 91.5", "result": 41008.7}, {"measurement": "Thermoflour melting curve fluorescence of Notum", "setting": "[2]; Temperature 92.5", "result": 41535.5}, {"measurement": "Thermoflour melting curve fluorescence of Notum", "setting": "[2]; Temperature 93.5", "result": 42071.6}, {"measurement": "Thermoflour melting curve fluorescence of Notum", "setting": "[2]; Temperature 94.5", "result": 42644}, {"measurement": "Thermoflour melting curve fluorescence of Notum", "setting": "[2]; Temperature 95.5", "result": 43225}, {"measurement": "Thermoflour melting curve fluorescence of Notum", "setting": "[2]; Temperature 96.5", "result": 43850.3}, {"measurement": "Thermoflour melting curve fluorescence of Notum", "setting": "[2]; Temperature 97.5", "result": 44460.4}, {"measurement": "Effect on Tm of Notum", "setting": "[2]", "result": "little effect on the Tm"}, {"measurement": "Melting temperature (Tm) of Notum", "setting": "[2]; Notum without compounds Tm 63.6 °C", "result": 63.4, "unit": "°C"}, {"measurement": "Notum inhibitory effect in OPTS enzyme assay", "setting": "[3]", "result": "could not detect obvious Notum inhibitory effects"}]}]}
